According to patent publication US20150216865A1, “METHODS OF TREATING A BRUTON'S TYROSINE KINASE DISEASE OR DISORDER” (Celgene Avilomics Research, Inc., priority 2012, published 2015):
Where two headings read alike, the source gives them in different places. Marks after values point to notes of the source that are not given here.

Key:
male NOD mice = test: NOD mouse model, lachrymal gland histopathology; type: in vivo; details: 20 weeks of age
Source text: Histopathology. Samples of lachrymal gland and salivary glands from all animals were fixed for Haematoxylin & Eosin histological analysis. Sections were inspected blind by a qualified histopathologist and scored for signs of pathology according to a semi-quantitative scoring system. This system is based on the mean number of inflammatory foci comprising 50 or more mononuclear inflammatory cells per objective field. The ratio of infiltrated to normal glandular tissue was expressed on a five point scale.
Lachrymal Gland Histopathology. Lachrymal glands from Control BALB/c mice (n=12 mice) and vehicle-treated NOD mice (n=9 mice) were examined and scored, in order to validate the model. For each animal, one section from the right lachrymal gland and one section from the left lachrymal gland were prepared. Sections were examined and scored for two criteria:
(i) Focus Score. The mean number of inflammatory foci comprising ≧50 mononuclear inflammatory cells per ×10 objective field was counted. Five such fields were assessed (where possible) to derive this index and these are selected to contain the maximum number of such foci. Where the overall area of the tissue section was less than five fields, the number of ×10 objective fields was recorded and used to determine the focus score. (ii) Area Score. […]

KC = test: Inflammatory chemokine and cytokine analysis in CIA mice, KC; type: in vivo, mouse
Source text: (§1) Inflammatory Chemokine and Cytokine Analysis: At the termination of the CIA study, mice were sacrificed and blood was harvested via cardiac punch using EDTA as an anticoagulant. […] Levels of various mouse cytokines in plasma were quantified using Bioplex® Suspension Array System according to manufacturer's instruction (BioRad, mTNFa (171-G5023M), mIL-6 (171-G5007M), mKC (171-G5018M), mIFNg (171-G5017M), mIL-17 (Z60-00006Z2), mIL-1β (171-G5002M), mMCP-1 (171-G5019M).

[1] = system: semi-established CIA Dba1 mice; test: Semi-established collagen induced arthritis (CIA) model; type: in vivo, mouse; details: 3 mg/kg, 10 mg/kg or 30 mg/kg daily
Method: Semi-Established Collagen Induced Arthritis (CIA) Arthritis Model. Experiments were carried out at Bolder Biopath, Boulder, Colo. All experiments were carried out in compliance with regulations of the Institutional Animal Care and Use Committee and were conducted in accordance with principles and procedures dictated by the highest standards of humane animal care. Dba1 mice were injected at the base of the tail with 150 μL of Freund's Complete Adjuvant (Sigma) containing bovine type II collagen (Elastin Products, Owensville, Mo.) (2 mg/ml) on day 0 and again on day 21. Mice were randomized into treatment groups on study day 21, and treatment was initiated. Treatment continued daily (3 mg/kg, 10 mg/kg or 30 mg/kg QD at 24 hour intervals) through day 33, and mice were terminated on day 33 (animals 1-6) or day 34 (animals 7-12). Onset of arthritis occurred between study days 21 and 34. Clinical scores were assessed for each of the paws on study days 21-34 using the following scoring system: 0=normal, 1=one hind or fore paw joint affected or minimal diffuse erythema and swelling, 2=two hind or fore paw joints affected or mild diffuse erythema and swelling, 3=three hind or fore paw joints affected or moderate diffuse erythema and swelling, 4=marked diffuse erythema and swelling or =four digit joints affected, 5=severe diffuse erythema and severe swelling entire paw, unable to flex digits. Spleens and plasma were harvested at necropsy (day 33 for animals 1-6 and day 34 for animals 7-12) and paws were removed and fixed in formalin for histopathological analysis.

Solubility = type: physicochemical
Environmental stability = type: physicochemical
IL-6 = test: Inflammatory chemokine and cytokine analysis in CIA mice, IL-6; type: in vivo, mouse
Source text: as §1

[2] = NOD mouse model of Sjogren's syndrome, bodyweight; type: in vivo
Method: Non-Obese Diabetic Mouse (NOD) Model of Sjogren's Syndrome. Male Non Obese Diabetic (NOD) mice from the KWS BioTest NOD colony and male BALB/c mice were randomly allocated to experimental groups and allowed to acclimatise for one week prior to the beginning of the study. From six weeks of age, animals were treated according to the administration schedule in Table 5, below. Each group consisted of n=12 animals. The administration volume was 15 ml/kg from 6-12 weeks of age. The administration volume was then decreased to 10 ml/kg from 13-20 weeks of age. The vehicle was distilled water pH 3.0-3.5 for Group 7. […] Animals were weighed at the start of the study (Day 0) and once per week until termination. […] Bodyweight data, expressed in grams, were analysed by two-way ANOVA followed by Dunnett's post-test for multiple comparisons to the vehicle-treated group and presented as mean bodyweights for each group (FIG. 12). Bodyweight data, expressed as a percentage of the initial bodyweight, were analysed by two-way ANOVA followed by Dunnett's post-test for multiple comparisons to the vehicle-treated group and presented as mean percentage of the initial bodyweight ±SEM (FIG. 13).

[3] = system: collagen-induced arthritis Dba1 mouse model; test: Established collagen induced arthritis model (clinical score, histopathology, body weight); type: in vivo; details: for reduction of clinical signs of disease (inhibition of disease): established CIA
Method: Established Collagen Induced Arthritis Model: Experiments were carried out at Bolder Biopath, Boulder, Colo. All experiments were carried out in compliance with regulations of the Institutional Animal Care and Use Committee and were conducted in accordance with principles and procedures dictated by the highest standards of humane animal care. […] On study days 25-27, onset of arthritis occurred, and mice were randomized into treatment groups (10/treatment group, 4/group for normal). […] Randomization into each group was done after swelling was obviously established in at least one paw, and attempts were made to assure approximately equal mean scores across the groups at the time of enrollment. […] Treatment continued daily (QD at 24 h intervals) through arthritis day 14.

C=CC(=O)Nc1cccc(Nc2nc(Nc3ccc(OCCOC)cc3)ncc2F)c1 [Compound 1 besylate, N-(3-(5-fluoro-2-(4-(2-methoxyethoxyl)phenylamino)pyrimidin-4-ylamino)phenyl)acrylamide besylate]
lachrymal gland Area Score (proportion of infiltrated glandular tissue) vs vehicle (male NOD mice): did not reduce
lachrymal gland Focus Score (number of inflammatory foci) vs vehicle (male NOD mice): did not reduce
KC mean (KC; 3 mg/kg): 62.0 pg/mL
KC mean (KC; 10 mg/kg): 31.1* pg/mL
KC mean (KC; 30 mg/lkg): 17.5* pg/mL
effect on clinical parameters of developing type II collagen arthritis [1]: significant beneficial effect
solubility (Solubility; aqueous solution, aqueous buffer, approximately pH 3.0, read-out: maximum aqueous solubility): 400 µg/mL
solubility (Solubility; ethanol, organic solvent or mixture, read-out: solubility in ethanol): ~10000 µg/mL
solubility (Solubility; water, read-out: solubility in water): ~160 µg/mL
environmental instabilities (heat, acid, base) (Environmental stability): no environmental instabilities
IL-6 mean (IL-6; 3 mg/kg): 15.4 pg/mL
IL-6 mean (IL-6; 10 mg/kg): 9.1* pg/mL
IL-6 mean (IL-6; 30 mg/lkg): 10.5* pg/mL
bodyweight gain (% of initial bodyweight) vs vehicle-treated group ([2]; 10 mg/kg SID, 8 weeks and 10 to 20 weeks of age): significant reduction in bodyweight gain
bodyweight (grams) vs vehicle-treated group ([2]; 10 mg/kg SID, at 13, 17, 19 and 20 weeks of age): significant decrease in bodyweight
bodyweight gain (% of initial bodyweight) vs vehicle-treated group ([2]; 30 mg/kg SID, 11 to 20 weeks of age): significant reduction in bodyweight gain
bodyweight (grams) vs vehicle-treated group ([2]; 30 mg/kg SID, from 14 to 20 weeks of age): significant decrease in bodyweight
bodyweight gain (% of initial bodyweight) vs vehicle-treated group ([2]; 50 mg/kg twice daily, 10 to 20 weeks of age): significant reduction in bodyweight gain
bodyweight (grams) vs vehicle-treated group ([2]; 50 mg/kg twice daily, from 11 to 20 weeks of age): highly significant decrease in bodyweight
bodyweight gain (% of initial bodyweight) vs vehicle-treated group ([2]; 100 mg/kg SID, 8 weeks and 10 to 20 weeks of age): significant reduction in bodyweight gain
bodyweight gain (% of initial bodyweight) vs vehicle-treated group ([2]; ad libitum 0.16 mg/ml in drinking water, 8 to 20 weeks of age): highly significant reduction in bodyweight gain
bodyweight (grams) vs vehicle-treated group ([2]; ad libitum 0.16 mg/ml in drinking water, 8 weeks and 10 to 20 weeks of age): highly significant decrease in bodyweight
reduction of clinical signs of disease (inhibition of disease) ([3]; 3 mg/kg PO QD): 50%
reduction of clinical signs of disease (inhibition of disease) ([3]; 10 mg/kg PO QD): 85%
inhibition of histopathologic signs of disease (six joints) ([3]; 30 mg/kg): 96%
reduction of clinical signs of disease (inhibition of disease) ([3]; 30 mg/kg PO QD): 95%
body weight loss associated with severity of disease ([3]; all three dose levels (3, 10, 30 mg/kg)): prevented the loss in body weight
